According to patent US20240035063A1, “SYNTHETIC MIXED CULTURE RESEMBLING A SKIN MICROBIOME” (Evonik Operations GmbH, priority 2020, published 2024):

Legend:
[1] = tested on: synthetic mixed culture resembling a skin microbiome (core microbiome model, strain mix ratio 1); test: Aerobic cultivation of core skin microbiome model (ratio 1) with test compound, 16S rRNA sequencing; format: cell-based; conditions: ratio 1, compound added at T=0, T=28 h
Experimental: Individual bacterial strains are inoculated from cryocultures to initiate preculture growth. BHI Media (110493; Merck KGaA, 64293 Darmstadt) or DSMZ media 92 or DSMZ media 535 media according to the recommendations of the German Collection of Microorganisms and Cell Cultures GmbH are used for preculture cultivation. At the end of cultivation strains are diluted to result in an optical density of OD600=1 using BHI media. These single strain cultures are mixed in defined strain ratios depending on their growth properties. Cultivation is carried out using a BioLector [[…]-labs; Arnold-Sommerfeld-Ring 2, 52499 Baesweiler] small scale test system with MTP-48-BOH 1 plates. 100 μl of strain mix, according to the ratios in table 2 are added to 1 ml BHI media in resulting in a starting OD600 of 0.091. Cultivation is done at 37° C., a shaking frequency of 600 rpm and relative humidity of 85% for 28 h until the process is stopped. At the end of cultivation OD600 is determined, and the remaining culture is centrifuged at 4° C., 5000 rpm and 5 min in an Eppendorf table centrifuge. The supernatant is discarded, and the pellet is stored at -20° C. Genomic DNA is extracted from these samples using the DNeasy PowerSoil Pro Kit [Qiagen GmbH, QIAGEN Strasse 1, 40724 Hilden]. DNA samples are analyzed by LGC Genomics GmbH [Ostendstraße 25, 12459 Berlin] using primer pair 341 F, Seq. ID NO 1, and […], Seq. ID NO 2, or library preparation and […] MiSeq for sequencing. Results are processed by LGC Genomics GmbH and mapped to an individual reference database containing the sequences of the strains which are present in the individual model. Preculture cultivation, ratio mixing and cultivation is carried out as in example 1 or 2. Test compounds are added to the cultures at T=0, 4, 8, 12, 16, or 24 h. At the end of the cultivation samples are taken and processed as in example 1 or 2 and results are compared to non-treated cultures to evaluate the effect of the test compounds on the core microbiome model.

[2] = tested on: synthetic mixed culture resembling a skin microbiome (core microbiome model, strain mix ratio 1); test: Anaerobic cultivation of core skin microbiome model (ratio 1) with test compound; format: cell-based; conditions: ratio 1, compound added at T=0, T=22 h
Experimental: Preculture cultivation and ratio mixing is carried out as in example 1. Anaerobic cultivation is done using a BioLector [[…]-labs; Arnold-Sommerfeld-Ring 2, 52499 Baesweiler] small scale test system with MTP-48-BOH 1 plates and the anaerobic module including an external mass flow controller for nitrogen (N2). 100 μl of strain mix, according to the ratios in table 2 are added to 1 ml BHI media resulting in a starting OD600 of 0.091. Cultivation is done at 37° C., a shaking frequency of 600 rpm and under nitrogen flushing for 22 h until the process is stopped. Preculture cultivation, ratio mixing and cultivation is carried out as in example 1 or 2. Test compounds are added to the cultures at T=0, 4, 8, 12, 16, or 24 h. At the end of the cultivation samples are taken and processed as in example 1 or 2 and results are compared to non-treated cultures to evaluate the effect of the test compounds on the core microbiome model.

Compound | relative abundance of S. aureus ([1]; vs non-treated culture) | relative abundance of S. epidermidis ([1]; vs non-treated culture) | relative abundance of S. hominis ([1]; vs non-treated culture) | shift compared to the baseline composition ([1]; vs non-treated culture) | general trends compared with aerobic conditions [2] | abundance of all other species ([1]; species other than S. warneri (and S. capitis for the lysate)) | abundance of S. warneri ([1]; vs non-treated culture) | microbial diversity ([1]; vs non-treated culture)
CN(CC(=O)O)C(=N)N [Creatine] | slightly decreased | slightly increased | slightly increased | minor shift | remain the same | – | – | –
sodium lauryl ether sulfate | – | – | – | drastic microbial community shifts | remain the same | at the expense of all other Staphylococcus species | significantly increased abundance | remarked loss of diversity
